{
  "source": "paper PMC3480714",
  "about": "(Nature chemical biology, 2012)",
  "biological_target": "T1, CobL (Rhodobacter capsulatus, UniProt D5AV04)",
  "T1 sequence (D5AV04 214-396)": "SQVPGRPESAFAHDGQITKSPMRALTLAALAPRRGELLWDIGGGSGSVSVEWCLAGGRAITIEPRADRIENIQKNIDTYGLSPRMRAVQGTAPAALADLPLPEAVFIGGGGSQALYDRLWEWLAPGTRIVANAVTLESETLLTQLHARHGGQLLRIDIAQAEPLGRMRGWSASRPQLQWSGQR",
  "test": "X-ray crystal structure at […] Å",
  "format": "binding",
  "data": [
    {"compound": "Nc1ncnc2c1ncn2[C@@H]1O[C@H](CSCC[C@H](N)C(=O)O)[C@@H](O)[C@H]1O", "note": "[SAH]", "values": [
      {"measurement": "X-ray crystal structure at 2.7 Å", "result": "The SAM binding site of the CobL^C subunit showing SAH bound at the C-terminal end of the Rossmann-like"}
    ]}
  ]
}
